Columns and labels:
[1] = Toxicity in BALB/c nude mouse xenografted with human HCT-116 cells assessed as change in cell morphology in spleen at 100 mg/kg, ip upto 20 days; type: organism-based; details: in vivo, 480 h, time < 20 day
HCT-116 [2] = assay: Induction of apoptosis in human HCT-116 cells assessed as late apoptotic cells at 0.1 uM measured after 24 hrs by FITC annexin-V/PI staining based flow cytometric analysis (reference value: 5.41%); type: functional
[3] = Toxicity in BALB/c nude mouse xenografted with human HCT-116 cells assessed as change in cell structure in spleen at 100 mg/kg, ip upto 20 days; type: organism-based; details: in vivo, 480 h, time < 20 day
[4] = target: T1, Glutaminase kidney isoform, mitochondrial (Homo sapiens, UniProt O94925); assay: Inhibition of GLS1 (unknown origin) preincubated for 10 mins followed by glutamine addition measured after 60 mins
T1 sequence (O94925 whole entry): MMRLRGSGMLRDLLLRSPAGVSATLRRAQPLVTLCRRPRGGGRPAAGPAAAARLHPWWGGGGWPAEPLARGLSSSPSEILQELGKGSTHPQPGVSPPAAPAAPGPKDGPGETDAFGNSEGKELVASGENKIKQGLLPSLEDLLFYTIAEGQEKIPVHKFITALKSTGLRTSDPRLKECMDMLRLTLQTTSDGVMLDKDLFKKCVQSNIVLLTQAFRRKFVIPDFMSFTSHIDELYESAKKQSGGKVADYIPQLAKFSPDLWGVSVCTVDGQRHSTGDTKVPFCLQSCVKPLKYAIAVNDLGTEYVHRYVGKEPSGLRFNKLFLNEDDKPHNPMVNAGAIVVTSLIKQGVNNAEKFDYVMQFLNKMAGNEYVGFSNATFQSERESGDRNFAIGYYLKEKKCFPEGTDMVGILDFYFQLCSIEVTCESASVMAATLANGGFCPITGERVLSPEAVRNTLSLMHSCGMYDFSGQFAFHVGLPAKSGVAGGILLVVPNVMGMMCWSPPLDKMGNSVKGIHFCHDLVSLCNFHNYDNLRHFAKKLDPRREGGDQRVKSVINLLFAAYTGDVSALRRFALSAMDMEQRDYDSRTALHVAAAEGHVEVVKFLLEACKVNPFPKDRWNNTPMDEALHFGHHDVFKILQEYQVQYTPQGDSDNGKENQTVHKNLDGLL

[5] = Toxicity in BALB/c nude mouse xenografted with human HCT-116 cells assessed as obvious tissue lesion in lung at 100 mg/kg, ip upto 20 days; type: organism-based; details: in vivo, 480 h, time < 20 day
HCT-116 [6] = assay: Induction of apoptosis in human HCT-116 cells assessed as late apoptotic cells at 1 uM measured after 24 hrs by FITC annexin-V/PI staining based flow cytometric analysis (reference value: 5.41%); type: functional
HCT-116 [7] = assay: Induction of apoptosis in human HCT-116 cells assessed as total apoptotic cells at 10 uM measured after 24 hrs by FITC annexin-V/PI staining based flow cytometric analysis relative to control; type: functional
[8] = Toxicity in BALB/c nude mouse xenografted with human HCT-116 cells assessed as change in cell morphology in heart at 100 mg/kg, ip upto 20 days; type: organism-based; details: in vivo, 480 h, time < 20 day
[9] = Metabolic stability in human liver microsomes assessed as clearance measured upto 120 mins by LC-MS/MS analysis; type: ADME, Microsome; details: read-out: CLH
HCT-116 [10] = assay: Induction of apoptosis in human HCT-116 cells assessed as early apoptotic cells at 1 uM measured after 24 hrs by FITC annexin-V/PI staining based flow cytometric analysis (reference value: 3.73%); type: functional
[11] = Toxicity in BALB/c nude mouse xenografted with human HCT-116 cells assessed as change in cell structure in kidney at 100 mg/kg, ip upto 20 days; type: organism-based; details: in vivo, 480 h, time < 20 day
[12] = Metabolic stability in human liver microsomes assessed as half life by LC-MS/MS analysis; type: ADME, Microsome
[13] = Toxicity in BALB/c nude mouse xenografted with human HCT-116 cells assessed as change in cell morphology in lung at 100 mg/kg, ip upto 20 days; type: organism-based; details: in vivo, 480 h, time < 20 day
[14] = Toxicity in BALB/c nude mouse xenografted with human HCT-116 cells assessed as change in cell morphology in kidney at 100 mg/kg, ip upto 20 days; type: organism-based; details: in vivo, 480 h, time < 20 day
[15] = Toxicity in BALB/c nude mouse xenografted with human HCT-116 cells assessed as obvious tissue lesion in heart at 100 mg/kg, ip upto 20 days; type: organism-based; details: in vivo, 480 h, time < 20 day
HCT-116 [16] = assay: Induction of apoptosis in human HCT-116 cells assessed as late apoptotic cells at 0.3 uM measured after 24 hrs by FITC annexin-V/PI staining based flow cytometric analysis (reference value: 5.41%); type: functional
HCT-116 [17] = assay: Induction of apoptosis in human HCT-116 cells assessed as late apoptotic cells at 10 uM measured after 24 hrs by FITC annexin-V/PI staining based flow cytometric analysis (reference value: 5.41%); type: functional
[18] = Toxicity in BALB/c nude mouse xenografted with human HCT-116 cells assessed as change in cell structure in lung at 100 mg/kg, ip upto 20 days; type: organism-based; details: in vivo, 480 h, time < 20 day
HCT-116 [19] = assay: Induction of apoptosis in human HCT-116 cells assessed as early apoptotic cells at 3 uM measured after 24 hrs by FITC annexin-V/PI staining based flow cytometric analysis (reference value: 3.73%); type: functional
HCT-116 [20] = assay: cells; details: Homo sapiens, HCT-116, 72 h
Description: Antiproliferative activity against human HCT-116 cells incubated for 72 hrs by MTT assay

[21] = Toxicity in BALB/c nude mouse xenografted with human HCT-116 cells assessed as as body weight loss at 100 mg/kg, ip upto 20 days; type: organism-based; details: in vivo, 480 h, time < 20 day
[22] = Toxicity in BALB/c nude mouse xenografted with human HCT-116 cells assessed as change in cell structure in liver at 100 mg/kg, ip upto 20 days; type: organism-based; details: in vivo, 480 h, time < 20 day
[23] = Toxicity in BALB/c nude mouse xenografted with human HCT-116 cells assessed as obvious tissue lesion in liver at 100 mg/kg, ip upto 20 days; type: organism-based; details: in vivo, 480 h, time < 20 day
HCT-116 [24] = assay: Induction of apoptosis in human HCT-116 cells assessed as early apoptotic cells at 0.1 uM measured after 24 hrs by FITC annexin-V/PI staining based flow cytometric analysis (reference value: 3.73%); type: functional
[25] = Toxicity in BALB/c nude mouse xenografted with human HCT-116 cells assessed as obvious tissue lesion in kidney at 100 mg/kg, ip upto 20 days; type: organism-based; details: in vivo, 480 h, time < 20 day
[26] = Toxicity in BALB/c nude mouse xenografted with human HCT-116 cells assessed as change in cell morphology in liver at 100 mg/kg, ip upto 20 days; type: organism-based; details: in vivo, 480 h, time < 20 day
HCT-116 [27] = assay: Antiproliferative activity against human HCT-116 cells in presence of alpha-ketoglutarate; type: functional, cell-based
[28] = Toxicity in BALB/c nude mouse xenografted with human HCT-116 cells assessed as change in cell structure in heart at 100 mg/kg, ip upto 20 days; type: organism-based; details: in vivo, 480 h, time < 20 day
[29] = target: T2, Glutaminase kidney isoform, mitochondrial (Homo sapiens) (UniProt O94925)
T2 sequence (whole entry): T1 sequence (O94925 whole entry)
Description: Stabilization of GLS1 (unknown origin) assessed as change in melting temperature by protein thermal assay

HCT-116 [30] = assay: Induction of apoptosis in human HCT-116 cells assessed as early apoptotic cells at 0.3 uM measured after 24 hrs by FITC annexin-V/PI staining based flow cytometric analysis (reference value: 3.73%); type: functional
HCT-116 [31] = assay: Induction of apoptosis in human HCT-116 cells assessed as late apoptotic cells at 3 uM measured after 24 hrs by FITC annexin-V/PI staining based flow cytometric analysis (reference value: 5.41%); type: functional
HCT-116 [32] = assay: Induction of apoptosis in human HCT-116 cells assessed as early apoptotic cells at 10 uM measured after 24 hrs by FITC annexin-V/PI staining based flow cytometric analysis (reference value: 3.73%); type: functional
[33] = Toxicity in BALB/c nude mouse xenografted with human HCT-116 cells assessed as obvious tissue lesion in spleen at 100 mg/kg, ip upto 20 days; type: organism-based; details: in vivo, 480 h, time < 20 day
HCT-116 [34] = assay: Antitumor activity against human HCT-116 cells xenografted in BALB/c nude mouse assessed as tumor growth inhibition at 100 mg/kg, ip for 20 days relative to control; type: functional; details: time 20 day
[35] = Toxicity in BALB/c nude mouse xenografted with human HCT-116 cells assessed as partial pyknosis of nuclei in liver at 100 mg/kg, ip upto 20 days; type: organism-based; details: in vivo, 480 h, time < 20 day
[36] = Toxicity in BALB/c nude mouse xenografted with human HCT-116 cells assessed as proliferation of hepatocyte in liver at 100 mg/kg, ip upto 20 days; type: organism-based; details: in vivo, 480 h, time < 20 day
[37] = Toxicity in BALB/c nude mouse xenografted with human HCT-116 cells assessed as hyperplasia of renal tubular epithelium in kidney at 100 mg/kg, ip upto 20 days; type: organism-based; details: in vivo, 480 h, time < 20 day
[38] = Toxicity in BALB/c nude mouse xenografted with human HCT-116 cells assessed as cytoplasmic acidophilia in liver at 100 mg/kg, ip upto 20 days; type: organism-based; details: in vivo, 480 h, time < 20 day
[39] = Toxicity in BALB/c nude mouse xenografted with human HCT-116 cells assessed as degeneration of hepatocyte in liver at 100 mg/kg, ip upto 20 days; type: organism-based; details: in vivo, 480 h, time < 20 day
[40] = Toxicity in BALB/c nude mouse xenografted with human HCT-116 cells assessed as prominent of nucleolus in liver at 100 mg/kg, ip upto 20 days; type: organism-based; details: in vivo, 480 h, time < 20 day

CCCCOc1cccc(CC(=O)Nc2ccc(N3CCC(Nc4nnc(NC(=O)CCCC)s4)CC3)nn2)c1
Activity [1]: Non-Toxic | Activity (HCT-116 [2]): 7.63% | Activity [3]: Non-Toxic | IC50 [4]: 7 nM | Activity [5]: Non-Toxic | Activity (HCT-116 [6]): 12.3% | Activity (HCT-116 [7]): ~30% | Activity [8]: Non-Toxic | microsomal CLint [9]: 32 µL/min/mg | Activity (HCT-116 [10]): 5.84% | Activity [11]: Non-Toxic | half-life [12]: 1.8 h | Activity [13]: Non-Toxic | Activity [14]: Non-Toxic | Activity [15]: Non-Toxic | Activity (HCT-116 [16]): 9.88% | Activity (HCT-116 [17]): 20.5% | Activity [18]: Non-Toxic | Activity (HCT-116 [19]): 6.54% | IC50 (HCT-116 [20]): 61 nM | Activity [21]: Non-Toxic | Activity [22]: Non-Toxic | Activity [23]: Non-Toxic | Activity (HCT-116 [24]): 4.9% | Activity [25]: Non-Toxic | Activity [26]: Non-Toxic | IC50 (HCT-116 [27]): 41500 nM | Activity [28]: Non-Toxic | ΔTm [29]: 15.1 °C | Activity (HCT-116 [30]): 5.76% | Activity (HCT-116 [31]): 17.2% | Activity (HCT-116 [32]): 8.52% | Activity [33]: Non-Toxic | TGI (HCT-116 [34]): 38.9%

O=C(Cc1cccc(OC(F)(F)F)c1)Nc1ccc(CCCCc2nnc(NC(=O)Cc3ccccn3)s2)nn1
Activity [35]: Toxic | Activity [36]: Toxic | microsomal CLint [9]: 35 µL/min/mg | half-life [12]: 1.65 h | IC50 (HCT-116 [20]): 560 nM | Activity [21]: Non-Toxic | Activity [37]: Toxic | Activity [38]: Toxic | TGI (HCT-116 [34]): 43.7% | Activity [39]: Toxic | Activity [40]: Toxic
